In patent US5629298A, “Adenosine as a positive inotrop in the compromised heart” (University of Massachusetts Medical Center, priority 1995, dated 1997):

What was measured:
[1] = tested on: cultured ventricular myocytes; assay: cAMP content of cultured ventricular myocytes (125I-cAMP RIA); format: cell-based, rat; details: 1 μM DMPX (FIG. 12)
Description: When myocytes were to be used for biochemical studies, each of the culture dishes was preincubated for 2 hours with 1 ml of MEM containing 33 μg of laminin in a 37° C. incubator gassed with 5% CO2 in room air. The laminin solution was removed prior to myocyte seeding. After seeding, the dishes were incubated for an additional 2 hours. The settling and short term culture procedures were performed to purify the myocytes so that >95% of the myocytes adhering to the dishes were rod shaped.
Cyclic AMP levels were determined in cultures of ventricular myocytes according to the following method. After the 2-hour incubation period, the MEM was aspirated and replaced with 2 ml of fresh MEM. Adenosine agonists, ISO, or adenosine antagonists were added to the medium bathing the cells at the concentrations and times indicated. The experiment was terminated by removing the medium from the dish and adding 200 μl of 1N HCl over the cultured myocyte surface. The dishes were then frozen in liquid N2 and stored at -70° C. or held on ice momentarily until extraction was initiated.
For assay, the contents of the dishes were transferred (using 1 ml of distilled/deionized H2 O) into microcentrifuge tubes. The extracts were heated for 1 hour at 57° C. and sonicated for 10 minutes. The extracts were then centrifugated at 14,000 x g for 15 minutes. The supernatant was removed, evaporated, reconstituted in 500 μl of 50 mM sodium acetate buffer and assayed for cAMP using an ^125 I-cAMP RIA kit (Amersham). The pellet was solubilized with 0.1N NaOH and protein determined. The cAMP values are reported in pmol cAMP/mg protein of the extract pellet (total cell protein). This cAMP assay procedure routinely provided recovery values in excess of 90%.

rat ventricular myocytes = assay: Contractile function of individual ventricular myocytes (line scan camera edge detection, paced at 0.5 Hz); format: cell-based
Description: Primary cultures of adult rat ventricular myocytes were prepared essentially according to previously described methods (Romano et al., Am. J. Physiol. 257:H1088 (1989)). Two male Sprague-Dawley rats (Charles River, Wilmington, Mass. or Harlan, Indianapolis, Ind.) were decapitated, and the hearts were rapidly excised and constant pressure (70 cm H2) and nonrecirculated) perfused for 10 minutes through the aortas with filtered (0.45 μm membrane filter) perfusing solution (NaCl, 118 mM; glucose, 10 mM; NaHCO3 25 mM; KCl, 4.69 mM; MgSO4 1.18 mM; and KH2 PO4, 1.18 mM; (pH 7.4)), to which […] was added, at 37° C. After equilibration, the hearts were constant pressure perfused with fresh physiological saline ("PS") containing no added Ca^2+ until spontaneous contractions ceased (i.e., ~30 seconds). The hearts were then perfused for 4-10 minutes in a nonrecirculating manner with PS containing 0.73 mg/ml collagenase, 0.16 mg/ml hyaluronidase, 1 mg/ml recrystallized bovine serum albumin ("BSA") and 48.4 μM Ca^2+ at a rate of 3-4 ml/min/heart. Ventricles, free of atria, were removed from the perfusion system, cut into 8 pieces and placed in a 50 ml Erlenmeyer flask with 5 ml of PS containing 0.73 mg/ml collagenase, 0.16 mg/ml hyaluronidase, 2.5 mg/ml BSA, and 50 μM Ca^2+ (incubation solution). The flask was gently shaken (40 cycles/min) in a reciprocating water bath with continuous gassing (95% O2, 5% CO2) for 7 minutes at 37° C. The incubation solution was aspirated and this shaking procedure was repeated with fresh incubation solution 3-5 times depending on the likelihood that the tissue was ready to dissociate. After the final incubation period, the solution was aspirated and replaced with 10 ml of fresh incubation solution. The flask was then shaken rapidly (120 cycles/min) for 10 minutes with gassing to dissociate the myocytes. The flask contents were filtered through a 250 μm nylon mesh into a 50 ml polypropylene centrifuge tube, to which 40 ml of PS containing 5.95 mg/ml BSA and 99.7 μm Ca^2+ (wash solution) was gradually added.
The myocytes were allowed to settle for 15 minutes, and the upper two thirds of the wash solution was aspirated. Upon the addition of 30-35 ml of wash solution, this settling step was repeated. The wash solution was aspirated and the myocyte pellet was resuspended in 10 ml of minimum essential medium ("MEM"). The myocyte suspension was allowed to settle for 5 minutes and then brought to a final volume of 22 ml with MEM. Two milliliters of the myocyte suspension was seeded onto each of 60 mm culture dishes containing 2 ml of MEM.
The contractile function of individual myocytes was assessed by dispersing 50-100 cells in a 506 μl myocyte chamber (11×23×2 mm deep). The chamber (FIG. 1) was continuously suffused (850 μl/min) with fresh suffusion solution ("SS") in mM: 136.4 NaCl, 4.7 KCl, 1.0 CaCl2, 10 hydroxyethylpiperzine-ethanesulfonicacid (HEPES), 1.0 NaHCO3, 1.2 MgSO4, 1.2 KH2 PO4, 10 glucose, 0.6 ascorbate, 1.0 pyruvate) at 20° C. The chamber was mounted on an inverted microscope stage and contained platinum wire electrodes for initiating myocyte contraction at 0.5 Hz (voltage 10% above threshold for 5 msec duration).
The image of the myocyte was projected via an inverted microscope at 300× onto a line scan camera (Fairchild, Model 1600R) containing a linear array (1×3456) of photodiodes. When aligned with the longitudinal axis of the cell the camera detected the movement of the 2 ends of the myocyte upon contraction (shortening and relengthening). […] When the myocyte was transilluminated, both ends of the cell were easily discriminated. Myocyte length and length change with respect to time for a single contraction was measured by determining the pixels in which the appropriate transitions between light and dark occurred. The line scan camera was calibrated with a stage micrometer scaled in 10 μm divisions. The signals from the camera were directed to a Hewlett Packard computer (Model Vectra RS/20C). […]

[2] = tested on: ventricular myocyte membrane adenylyl cyclase; assay: Adenylyl cyclase activity of ventricular myocyte membranes; format: biochemical, rat
Description: After a 3-4 hour incubation period, myocytes were harvested by placing the culture dishes on ice; aspirating and discarding the culture medium; scraping the attached cells into 1 ml of ice cold buffer (pH 7.4) containing 10 mM HEPES and 1 mM dithiothreitol (DTT); and transferring the mixture to a 40 ml centrifuge tube. The culture dishes were rinsed twice with buffer, and the rinses were added to the centrifuge tube. The myocytes were centrifuged at 45,000 x g for 45 minutes and the supernatant was discarded. The pellet was resuspended in 40 mM HEPES (pH 7.4) to yield 3.5-4 mg protein/ml and homogenized with a small clearance Dounce tissue grinder (8 strokes). The membranes were centrifugated as described above, resuspended (3-4 mg protein/ml) in 40 mM HEPES (pH 7.4), and assayed for adenylyl cyclase activity immediately or stored at -80° C. and assayed within 10 days.
The assay system used to measure adenylyl cyclase activity minimizes the formation of endogenous adenosine. The assay used was essentially as described by Romano et al. (supra). Myocyte membranes (15-25 μg protein) were incubated in 50 μl of a buffer containing 40 mM HEPES (pH 7.4), 5 mM MgCl2, 1 mM DTT, 5.5 mM KCl, 0.1 mM 2'-deoxy-cAMP (dcAMP), 0.1 mM 2'-deoxy ATP (dATP), 20 mM phosphoenolpyruvate, 2 units pyruvate kinase, 0.25 units adenosine deaminase, 1 mM ascorbic acid, 100 mM NaCl, 0.1 mM ethyleneglycol-bis (β-aminoethylether) N,N,N',N',-tetroaceticacid (EGTA), 10 μM guanosine 5'-triphosphate (GTP), and ~2×10^6 counts/minutes of [α-^32 P]dATP for 20 minutes at 30° C. The reaction was stopped by adding 40 μl of a solution containing 2% sodium dodecyl sulfate (SDS), 45 mM ATP, 1.3 mM cAMP, and [^3 H]dcAMP (~4000 count/min) and by boiling for 2 minutes.

[3] = Table 5, CGS-21680 and/or CGS-15943 at 10^-5 M, 10 min, mean ± SE, N = 6

Row | SMILES | effect on the increase in cAMP caused by 10 μM CGS-21680 [1] | effect on the adenosine induced increases in contractile variables (rat ventricular myocytes; 10 μM CGS-15943, 100 μM adenosine + 0.2 μM DPCPX) | effect on the increase in myocyte contractility produced by CGS-21680 (rat ventricular myocytes; CGS-15943 (10 μm), CGS-21680 (10 μm)) | +dL/dtmax, maximal rate of shortening (rat ventricular myocytes; [3]) [μm/msec] | -dL/dtmax, maximal rate of relaxation (rat ventricular myocytes; [3]) [μm/msec] | DS, duration of shortening (rat ventricular myocytes; [3]) [ms] | LC, maximum length change (shortening) with contraction (rat ventricular myocytes; [3]) [μm] | TPS, time-to-peak shortening (rat ventricular myocytes; [3]) [ms] | TR, time to 75% relaxation (rat ventricular myocytes; [3]) [ms] | effect on the CGS-21680 increase in cyclase activity ([2]; 10 μM CGS-15943, 0.1 μM DPCPX present) | effect on the NECA increase in membrane cyclase activity ([2]; CGS-15943 at 10 μM, both in the absence and presence of DPCPX)
1 | C#CCn1c(=O)c2c(ncn2C)n(C)c1=O [DMPX, 3,7-dimethyl-1-propargylxanthine] | prevented | – | – | – | – | – | – | – | – | – | –
2 | N=c1[nH]c2ccc(Cl)cc2c2nc(-c3ccco3)nn12 [CGS-15943, 9-chloro-2-(2-furanyl)-5,6-dihydro-1,2,4-triazolo-(1,5-C)quinazolin-5-imine] | – | inhibited | prevented | 146 ± 10 | 123 ± 11 | 331 ± 15 | 18 ± 2 | 122 ± 3 | 285 ± 10 | prevented | prevented
